{"source": "patent US6303596A", "about": "“Use of taurolidine for treatment of leukemias” (priority 2000, dated 2001)", "type_in_all_cases": "cell-based, human", "key": {"tissue factor (TF)": {"tested_on": "tissue factor (TF)", "experiment": "LPS-induced tissue factor (TF) expression in MM6 cells, ELISA", "conditions": "for inhibition of LPS-induced TF expression: 4 h", "protocol": "FIG. 2A represents MM6 cells; FIG. 2B represents PBMC. The cells were induced with LPS (hatched bars: 100 ng/ml LPS in RPMI supplemented with 10% BCS (RPMI+10% BCS); solid bars: 10 ng/ml in AIM-V+0.01% BCS) in the presence of varying concentrations of taurolidine,or with a dilution of the vehicle equivalent to that given to cells receiving 100 μg/ml taurolidine. After four hours, cells were collected and lysates were prepared for TF ELISA. Data are expressed as percent of TF antigen measured in cells treated with LPS alone (no taurolidine or vehicle). Experiments were performed with duplicate samples and were repeated at least three times. Values shown are mean±SEM of all experiments.\nAll cells were cultured in a 5% CO2 atmosphere at 37° C. MM6 cells were grown in RPMI supplemented with 10% BCS, 2 mM L-glutamine, and 50 μg/ml gentamicin (RPMI+10% BCS). In some experiments, MM6 cells were rinsed once with HBSS without Ca^++ or Mg^++ and once with AIM-V before finally being resuspended in AIM-V supplemented with 0.01% BCS (AIM-V+0.01% BCS). […] AIM-V was supplemented with a low amount of BCS (0.01%) in order to provide a source of LPS-binding protein, which enhances the response of monocytic cells to LPS. […] HL-60, REH, and Jurkat were cultured in RPMI supplemented with 10% heat inactivated fetal bovine serum (FBS), 2 mM L-glutamine, and 50 μg/ml gentamicin. ECV304 were cultured in M199 supplemented with 10% FBS, mM L-glutamine, and 50 μg/ml gentamicin. GM5387 was cultured in MEM supplemented with 20% FBS, 2 mM L-glutamine, and 50 μg/ml gentamicin.\nFor induction of TF or TNFα expression, MM6 cells or PBMC were cultured either in RPMI supplemented with 10% BCS or in AIM-V+0.01% BCS, and stimulated by adding LPS to final concentrations of 10 to 100 ng/ml. […] Except as noted, taurolidine and LPS were added to the cell cultures simultaneously. For TF determination, cells and culture media together were treated by adding Triton X-100 (1% final) and EDTA (7 mmol/L final), and the resulting lysates assayed by ELISA. […] For TNFα determination, cells were removed by centrifugation for 5 min at 250×g, and the supernatants were assayed by ELISA."}, "MM6 cells [1]": {"tested_on": "MM6 cells", "experiment": "DNA fragmentation, agarose gel electrophoresis, MM6", "protocol": "FIG. 13 is an agarose gel depicting DNA fragmentation in response to taurolidine treatment as determined by assay procedures. MM6 cells were incubated with taurolidine or vehicle in RPMI+10% BCS for four hours. Cells were harvested and low molecular weight DNA extracted as described below. C=control cells without taurolidine or vehicle treatment; T=treated with 50 μg/ml taurolidine; V=treated with vehicle alone; and MW=molecular weight markers.\nFollowing treatment with either taurolidine or the vehicle solution, cell death was assessed in one of two ways. In the first method, the DNA fragmentation pattern characteristic of apoptosis was detected by extracting low molecular weight DNA from cells using a phosphate-citrate buffer (Darzynkiewicz, et al., \"Assays of cell viability: discrimination of cells dying by apoptosis,\" Methods Cell Biol 41:15 (1994)) and subjecting the extracted DNA to agarose gel electrophoresis.\nApoptosis is associated with fragmentation of genomic DNA in the internucleosomal linker regions, which can be visualized as a characteristic ladder of DNA fragments upon gel electrophoresis. Arends, M. J. and Wyllie, A. H., \"Apoptosis: mechanisms and roles in pathology,\" Int Rev Exp Path 32:223 (1991). Accordingly, low molecular weight DNA was extracted from taurolidine-treated MM6 cells and subjected to electrophoresis in agarose gels."}, "MM6 cells [2]": {"tested_on": "MM6 cells", "experiment": "cell morphology / size (microscopy, flow cytometry FSC and SSC), MM6", "protocol": "(§1) FIG. 12A, FIG. 12B, FIG. 12C, and FIG. 12D are flow cytometric analyses depicting changes in cell morphology following taurolidine treatment. MM6 and PBMC were treated for three hours with taurolidine, and then treated and untreated control cells were processed for flow cytometry. Monocytes in PBMC samples were identified by staining with FITC-conjugated anti-CD14, and lymphocytes by FITC-conjugated anti-CD3 and PE-conjugated anti-CD19. FIG. 12A represents untreated MM6 cells; FIG. 12B represents MM6 cells treated with 50 μg/ml taurolidine; FIG. 12C represents untreated PBMC; and FIG. 12D represents PBMC treated with 75 μg/ml taurolidine. M=monocytes; L=lymphocytes.\n(§2) A Becton-Dickinson FACSCalibur instrument was used for flow cytometric analysis of cells. Assessment of cell diameter (forward scatter; FCS) and granularity (side scatter; SSC).was carried out on unfixed cells. Discrimination between lymphocytes and monocytes was made possible by their characteristic differences in FSC and SSC, and confirmed by staining monocytes with FITC-labeled anti-CD14 antibodies and lymphocytes with a combination of FITC-conjugated anti-CD3 and PE-conjugated anti-CD19. After incubation with taurolidine (with or without concomitant LPS treatment), cells were rinsed twice in phosphate-buffered saline containing 0.1% bovine serum albumin (PBSA) and 1×10^6 cells were resuspended in 0.1 ml PBSA. […]"}, "[3]": {"tested_on": "peripheral blood monocytes", "experiment": "cell size by flow cytometry (FSC), peripheral blood monocytes", "conditions": "taurolidine 6 h", "protocol": "as §1, §2"}}, "data": [{"smiles": "O=S1(=O)CCN(CN2CCS(=O)(=O)NC2)CN1", "note": "[taurolidine, 4,4'-methylenebis(perhydro-1,2,4-thiadiazin 1,1-dioxide)]", "values": [{"measurement": "inhibition of LPS-induced TF expression", "setting": "tissue factor (TF); MM6, taurolidine 50 μg/ml or higher", "result": "completely blocked"}, {"measurement": "inhibition of LPS-induced TF expression", "setting": "tissue factor (TF); MM6, taurolidine 10 or 25 μg/ml", "result": "little or no effect"}, {"measurement": "induction of TF expression (summary)", "setting": "tissue factor (TF); PBMC, MM6 and granulocytes, LPS-induced", "result": "blocked"}, {"measurement": "DNA fragmentation ladder", "setting": "MM6 cells [1]; MM6, 50 μg/ml taurolidine, 4 h, no LPS", "result": "prominent ladder pattern of DNA fragments"}, {"measurement": "DNA fragmentation ladder", "setting": "MM6 cells [1]; MM6, LPS present during taurolidine treatment", "result": "identical results"}, {"measurement": "cell size by microscopy", "setting": "MM6 cells [2]; MM6, 100 μg/ml taurolidine, 4 h", "result": "smaller than control cells"}, {"measurement": "decrease in FSC", "setting": "MM6 cells [2]; MM6, taurolidine 3 h", "result": "approximately 30%"}, {"measurement": "decrease in FSC", "setting": "[3]", "result": "approximately 30%"}]}]}
